One compound from publication PMC3179953, “In Mycoplasma hominis the OppA-mediated cytoadhesion depends on its ATPase activity” (BMC Microbiology, 2011) can be followed below.

The experiment addresses T1, OppA^WT (OppA, P100), wild type purified from M. hominis (Metamycoplasma hominis, UniProt Q49551).
T1 construct: native lipoprotein, solubilised with N-dodecylmaltoside from membranes and isolated with sepharose-coupled antibody DC10; phosphorylated
As to the kind of experiment: ammonium molybdate ATPase assay, inhibitor preincubated […] min. The experiment is classed as biochemical. The settings on record: 200 μM inhibitor.

SMILES strings stand for the structures.

T1 sequence (Q49551 entry or part of it): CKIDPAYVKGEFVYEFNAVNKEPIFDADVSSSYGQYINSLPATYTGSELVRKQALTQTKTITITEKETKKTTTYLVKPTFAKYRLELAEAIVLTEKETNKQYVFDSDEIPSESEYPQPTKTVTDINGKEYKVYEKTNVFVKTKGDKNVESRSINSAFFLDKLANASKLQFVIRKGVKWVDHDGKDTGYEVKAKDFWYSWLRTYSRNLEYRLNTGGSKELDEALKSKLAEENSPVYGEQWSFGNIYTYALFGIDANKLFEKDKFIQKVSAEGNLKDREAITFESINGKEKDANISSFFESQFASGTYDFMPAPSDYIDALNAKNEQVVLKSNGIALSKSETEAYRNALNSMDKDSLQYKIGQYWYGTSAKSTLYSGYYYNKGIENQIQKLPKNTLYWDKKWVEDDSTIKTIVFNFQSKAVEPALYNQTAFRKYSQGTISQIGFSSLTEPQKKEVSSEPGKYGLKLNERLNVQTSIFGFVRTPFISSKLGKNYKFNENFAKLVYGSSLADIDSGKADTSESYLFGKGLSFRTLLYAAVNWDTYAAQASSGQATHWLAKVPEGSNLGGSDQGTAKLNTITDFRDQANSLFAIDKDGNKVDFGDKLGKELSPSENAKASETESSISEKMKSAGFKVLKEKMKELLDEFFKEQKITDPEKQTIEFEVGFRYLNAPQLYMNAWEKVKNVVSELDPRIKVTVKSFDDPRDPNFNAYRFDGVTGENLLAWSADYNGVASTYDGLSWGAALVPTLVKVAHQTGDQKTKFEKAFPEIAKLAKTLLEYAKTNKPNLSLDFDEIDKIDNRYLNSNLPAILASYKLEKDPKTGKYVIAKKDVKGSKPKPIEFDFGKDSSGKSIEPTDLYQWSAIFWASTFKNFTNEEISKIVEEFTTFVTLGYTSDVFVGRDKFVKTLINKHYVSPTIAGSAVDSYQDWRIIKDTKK

As for `O=S(=O)(O)c1cc(N=C=S)ccc1/C=C/c1ccc(N=C=S)cc1S(=O)(=O)O` [DIDS, 4,4'-diisothiocyano-2,2'-stilbene-disulfonic acid], the “relative ATPase activity at 200 μM” value is “OppA was neither able to hydrolyze ATP (Figure 3A)”.
